Laboratory results reported in patent US8513010B2, “Dendritic cells pulsed with a bisphosphonate” (Medinet Co. Ltd., priority 2004, dated 2013).

Tests used:
γδ T-cells [1] = assay: Culture of peripheral blood mononuclear cells with Aredia and IL-2, phenotype by flow cytometer (Example 4); type: cell-based, human; details: peripheral blood monocyte suspension, Aredia 10 μM, IL-2 1,000 U/ml, cultivated 14 days
Description: From a healthy donor 30 ml of peripheral blood was collected, and peripheral blood mononuclear cells were collected using a density gradient medium for blood cell separation. The cells collected were washed several times to remove platelets and the like.
The peripheral blood monocytes obtained were suspended in AIM-V medium (10% FCS), and Aredia was added so that the concentration in the peripheral blood monocyte suspension was 10 μM.
This was cultivated for 14 days. During this period, AIM-V (10% FCS) medium and IL-2, at a final concentration of 1,000 U/ml, were added in accordance with the cell proliferation.
Using a flow cytometer, the phenotype of the cells cultured was confirmed to be a cell subset containing at least 95% of γδ T-cells.

γδ T-cells [2] = assay: IFN-γ ELISpot confirming activation of γδ T-cells (Example 5); type: cell-based, human; details: 30,000 γδ T-cells + 15,000 immature or mature dendritic cells + Aredia 10 μM, versus γδ T-cells alone, γδ T-cells with Aredia only, FIG. 2
Description: In each well of a MultiScreen plate (Millipore), 70% ethanol was added and removed within two minutes.
An anti-interferon(IFN)-γ antibody for coating (clone: 1-D1K, MABTECH ELISpot for Human Interferon-γ kit) was diluted with PBS to 15 μg/ml, and added 100 μl/well.
The γδ T-cells obtained in Example 4 were collected by centrifugation and washed twice with AIM-V.
To 30,000 of the γδ T-cells collected, and 15,000 of the immature or mature dendritic cells obtained in Example 1 Aredia, prepared to have a final concentration of 10 μM, was added, and precultivated in a 15 ml tube (Falcon) under the conditions of 37° C. and 5% CO2 for two hours. At the same time, precultivation of γδ T-cells by themselves, precultivation of γδ T-cells with only Aredia added thereto, and precultivation of the respective dendritic cells by themselves were also conducted. Each culture volume was adjusted to 300 μl.
The plate was washed with PBS after blocking, and each group of cells which completed precultivation under the respective conditions was disseminated in three wells, 100 μl/well.
They were cultured overnight under the conditions of 37° C. and 5% CO2. […]
After confirming that the membrane on the plate was dry, the number of spots was measured using an ELISpot reader (AID Autoimmune Diagnostika GmbH), and the data was analyzed using the AID software version 3.1 (AID).

Question: Which “γδ T-cells in the cultured cell subset” value (γδ T-cells [1]) does the source give for `NCCC(O)(P(=O)([O-])O)P(=O)([O-])O.O.O.O.O.O.[Na+].[Na+]` [Aredia, pamidronate disodium pentahydrate] here?
Answer: Its value is “at least 95%”.

Question: And the “number of spots (IFN-γ ELISpot)” value (γδ T-cells [2])?
Answer: Its value is “increased only when the dendritic cells and Aredia were added simultaneously to the γδ T-cells”.

Question: What about the “spot intensity (IFN-γ ELISpot)” value (γδ T-cells [2]) of the same molecule?
Answer: The value was “increased only when the dendritic cells and Aredia were added simultaneously to the γδ T-cells”.
